The record followed here is PMC12757379 (Frontiers in Pharmacology, 2025).

Structures are written as SMILES.

Assay [1] addresses T1, farnesoid X receptor (FXR) (Homo sapiens, UniProt Q96RI1).
T1 construct: gene NR1H4; human FXR protein (His Tag; Cat: 17624-H07E)
T1 sequence (Q96RI1 1-486): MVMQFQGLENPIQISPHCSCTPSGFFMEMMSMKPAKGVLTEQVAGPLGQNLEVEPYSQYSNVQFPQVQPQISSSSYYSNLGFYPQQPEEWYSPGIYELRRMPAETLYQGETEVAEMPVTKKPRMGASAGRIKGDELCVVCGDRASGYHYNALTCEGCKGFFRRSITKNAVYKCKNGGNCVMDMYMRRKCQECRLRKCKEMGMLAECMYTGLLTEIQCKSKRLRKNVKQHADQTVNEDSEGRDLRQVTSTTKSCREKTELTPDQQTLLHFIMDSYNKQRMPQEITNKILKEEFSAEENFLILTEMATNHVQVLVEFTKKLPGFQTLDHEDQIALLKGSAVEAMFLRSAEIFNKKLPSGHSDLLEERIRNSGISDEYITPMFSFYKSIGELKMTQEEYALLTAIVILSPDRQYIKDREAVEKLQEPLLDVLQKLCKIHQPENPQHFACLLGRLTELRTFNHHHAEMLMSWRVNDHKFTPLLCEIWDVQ
Put plainly: retention of standard on immobilized-FXR affinity column ([…]D biochromatography). Type of assay: binding.

For assay [2], the target named is T1, farnesoid X receptor (FXR). Put plainly: SPR (Biacore T200); also frontal affinity chromatography KD […]. Type of assay: binding.

`O=C1c2cccc(O)c2C(=O)c2c(O)cc(CO)cc21` [aloe-emodin]: the “retention of standard on immobilized-FXR affinity column (2D biochromatography)” value in assay [1] is “emodin, physcion, aloe-emodin, and TSG exhibited distinct retentions, thereby confirming their strong binding affinities for FXR”.

Consider `COc1cc(O)c2c(c1)C(=O)c1cc(C)cc(O)c1C2=O` [physcion], for which, in assay [2], the Kd stood at 30.3 µM.
